From patent publication EP0911330B1, “1-(4-Arylpiperazine-1-y1)-3-(2-oxopyrrolidin/piperidin-1-y1) propanes as therapeutic agents for hypertension, ischemia, cardiovascular and other adrenergic receptors related disorders” (Council of Scientific & Industrial Research, priority 1997, dated 1999)

What was measured:
[1] = Acute toxicity (LD50); details: mouse, in vivo, Mice
[2] = test system: Naturally occuring hypertensive cat; assay: Effect on blood pressure, heart rate and adrenaline vasopressor response, anaesthetized naturally hypertensive cat; type: in vivo
Protocol: (§1) 2. Effect on blood pressure, heart rate and adrenaline vasopressor response of anaesthetized (pentobarbitone sodium 40 & 60 mg/kg i.p. in cat and rat respectively) normotensive & hypertensive rat & cat model preparations.
(§2) • (a) Cats (2.6-4.0 kg) of either sex anaesthetized with pentobarbitone sodium (40 mg/kg i.v.) and showing basal mean arterial blood pressure below 150 mm (Hg) were categorised as normotensive and above 150 mm Hg as hypertensive. Arterial blood pressure (BP) was recorded from one of the carotid artery through a stathum P23 DC pressure transducer and 7P1 low level DC preamplifier on a Grass Model P7 Polygraph, Signals from 7P1 preamplifier were used to trigger 7P4 Tachograph preamplifier for recording the heart rate (HR). Right femoral vein and Trachea were cannulated for intravenous injections and artificial ventilation respectively. Control responses to intravenous injection of noradrenaline (2-4 ug); acetyl choline (1-2 ug); histamine ([…]) and isoprenaline (1-2 ug) were taken before and after the administration of test doses of each compounds.

[3] = test system: Normotensive cat; assay: Effect on blood pressure, heart rate and adrenaline vasopressor response, anaesthetized normotensive cat; type: in vivo
Protocol: as §1, §2

[4] = test system: Hypertensive rat model preparation; assay: Effect on blood pressure, heart rate and adrenaline vasopressor response, anaesthetized hypertensive rat model; type: in vivo
Protocol: 2. Effect on blood pressure, heart rate and adrenaline vasopressor response of anaesthetized (pentobarbitone sodium 40 & 60 mg/kg i.p. in cat and rat respectively) normotensive & hypertensive rat & cat model preparations. […]

[5] = test system: Normotensive rat model preparation; assay: Effect on blood pressure, heart rate and adrenaline vasopressor response, anaesthetized normotensive rat; type: in vivo
Protocol: as §1

[6] = test system: Spinal transected cat; assay: Site of action: spinal transected cat, blood pressure; type: in vivo; details: dose 2-10 umol/kg i.d.
[7] = Site of action: ICV administration, blood pressure; type: in vivo; details: dose 0.34-1.36 (column head: umol/kg i.d.)
[8] = test system: Rat hind limb perfusion; assay: Site of action: rat hind limb perfusion, flow; type: in vivo
[9] = test system: Isolated aortic strip; assay: Isolated aortic strip, endothelin induced contraction
[10] = test system: Isolated Guinea pig ileum preparation; assay: Isolated guinea pig ileum, antihistaminic activity; details: 0.5-5.0 ug/ml
[11] = test system: Langendorffs perfused rat heart preparation; assay: Langendorff perfused rat heart, chronotropic effect
[12] = test system: histamine induced bronchoconstriction; assay: Konzett and Rossler preparation, histamine induced bronchoconstriction; type: in vivo
[13] = test system: Rat aortic ring preparation; assay: Rat aortic ring preparation, NE induced contraction
[14] = test system: cat; assay: Drug antagonism studies of the antihypertensive effect in cat; type: in vivo; details: 2 uMol dose i.v.
[15] = test system: cat; assay: Comparative antihypertensive effect with clinically used antihypertensive drugs in cat; type: in vivo; details: 2 uMol/kg i.v.
Source text: (4) Comparative antihypertensive effect with clinically used antihypertensive drugs at 2 uMol/kg i.v. dose in cat

[16] = test system: Langendorff perfused rat heart preparation; assay: Cardioprotective activity, Langendorff perfused rat heart, prolonged ischemic insult, compound given at reperfusion
Protocol: Further, in Langendorff perfused rat heart preparation subjected to even upto 90 min. global ischemia, the compound at 0.001 ug/ml conc. given at the time of reperfusion revived normal rhythmic contraction started within 2 min. (Table 1) and incidence of reperfusion induced arrhythmia were abolished. Table 1: Compound administered at the time of reperfusion at the dose of 0.001 ug/ml on prolong period (90 min.) of ischemic insult.
(§3) The rats were killed by decapitation, heart were rapidly excised and placed in ice-cold HEPES tyrode buffer. Then isolated hearts were perfused retrogradely through coronary arteries using the Langendorff technique. The perfusion buffer consisted (in mM) NaCl 137, KCl 5.4, CaCl2 1.8, MgCl2 1.0, glucose 11.2 and HEPES 3.0. The buffer (pH 7.4) was continuously gassed with oxygen and maintained at 37°C. Coronary flow rate was maintained at 10 ml/min. The heart contracted spontaneously.
(§4) The perfused heart was allowed to equilibrate for 30 min. before initiation of any insult protocol. The text compounds were given at the time of reperfusion. Some of the compounds were dissolved in ethanol. Final concentration of ethanol in the perfusion buffer was 0.0001% and had no effect of its own on the parameter used. • (a) For brief period of ischemic insult (Hideo et al.). Pathophysiology and pathogenesis of stunned myocardium. J. Clin. Invest., 79, 950-961, 1987). Ischemia was initiated by stopping the flow for 16 min. followed by 30 min. reperfusion period. The durations were decided on the initial pilot experiments leading to 50% recovery of function. • (b) For prolong period of ischemic insult (Becker, L.C. & Ambrosio, G. Myocardial consequences of reperfusion. Prog. Cardiovas. Dis., 30, 23-44, 1987). Ischemia was initiated by stopping the flow for […]. followed by 30 min. reperfusion.

[17] = test system: cat; assay: Effect on blood pressure and adrenaline vasopressor response in anaesthetized cat, i.v. (Table 2); type: in vivo
Protocol: as §2

[18] = test system: Langendorff perfused rat heart; assay: Antiischemic activity, Langendorff perfused rat heart, brief (16 min.) ischemic insult, compound given at reperfusion (Table 3); details: 0.001 ug/ml at reperfusion
Protocol: Table 3: Compound administered at the time of reperfusion at a dose of 0.001 ug/ml on brief period (16 min.) of ischemic insult.
as §3, §4

[19] = dose 20 uMol/kg i.d., in beats/min (unit assumed)
[20] = up to 90 min. global ischemia, 0.001 ug/ml given at the time of reperfusion

With `O=C1CCCN1CCCN1CCN(c2ccc(F)cc2)CC1` [C6H4-4-F, n=1, 1-[4-(4-fluorophenyl)piperazin-1-yl]-3-[2-oxopyrrolidin-1-yl]propane] the LD50 ([1]; ip) was 147 mg/kg, the LD50 ([1]; po) was 562 mg/kg and the “Adrenaline vasopressure response % inhibition” value ([2]; dose 10 uMol/kg i.d.) was 49%. For the same compound, the B.P. fall ([2]; dose 10 uMol/kg i.d.) was 16%, the Dur. ([2]; dose 10 uMol/kg i.d.) was 110 min and the “Heart rate Pre treatment” value ([2]; dose 10 uMol/kg i.d.) was 195/195. The “Heart rate post treatment” value ([2]; dose 10 uMol/kg i.d.) was 195/195, the B.P. fall ([2]; dose 20 uMol/kg i.d.) was 22% and the Dur. ([2]; dose 20 uMol/kg i.d.) was >156.75 min. The “Heart rate Pre treatment” value [2, 19] was 177, the “Heart rate post treatment” value [2, 19] was 185 and the “Adrenaline vasopressure response % inhibition” value ([3]; dose 10 uMol/kg i.d.) was 26%. The B.P. fall ([3]; dose 10 uMol/kg i.d.) was 22%, the Dur. ([3]; dose 10 uMol/kg i.d.) was 85 min and the Heart rate Pre treatment ([3]; dose 10 uMol/kg i.d.) was 200 beats/min. For the same compound, the Heart rate post treatment ([3]; dose 10 uMol/kg i.d.) was 170 beats/min, the “Adrenaline vasopressure response % inhibition” value ([3]; dose 20 uMol/kg i.d.) was 34.75% and the B.P. fall ([3]; dose 20 uMol/kg i.d.) was 21%. For the same compound, the Dur. ([3]; dose 20 uMol/kg i.d.) was >102.5 min, the Heart rate Pre treatment ([3]; dose 20 uMol/kg i.d.) was 185 beats/min and the Heart rate post treatment ([3]; dose 20 uMol/kg i.d.) was 165 beats/min. For the same compound, the “Adrenaline vasopressure response % inhibition” value ([4]; dose 5 uMol/kg i.d.) was 33%, the B.P. fall ([4]; dose 5 uMol/kg i.d.) was 27% and the Dur. ([4]; dose 5 uMol/kg i.d.) was 51 min. For the same compound, the Heart rate Pre treatment ([4]; dose 5 uMol/kg i.d.) was 346 beats/min, the Heart rate post treatment ([4]; dose 5 uMol/kg i.d.) was 320 beats/min and the “Adrenaline vasopressure response % inhibition” value ([4]; dose 10 uMol/kg i.d.) was 23%. It also gave a B.P. fall ([4]; dose 10 uMol/kg i.d.) of 22%, a Dur. ([4]; dose 10 uMol/kg i.d.) of 76 min and a Heart rate Pre treatment ([4]; dose 10 uMol/kg i.d.) of 356 beats/min. For the same compound, the Heart rate post treatment ([4]; dose 10 uMol/kg i.d.) was 340 beats/min, the “Adrenaline vasopressure response % inhibition” value ([4]; dose 20 uMol/kg i.d.) was 54% and the B.P. fall ([4]; dose 20 uMol/kg i.d.) was 29%. For the same compound, the Dur. ([4]; dose 20 uMol/kg i.d.) was 100 min, the Heart rate Pre treatment ([4]; dose 20 uMol/kg i.d.) was 310 beats/min and the Heart rate post treatment ([4]; dose 20 uMol/kg i.d.) was 275 beats/min. For the same compound, the B.P. fall ([5]; dose 2 uMol/kg i.v.) was 25%, the Dur. ([5]; dose 2 uMol/kg i.v.) was 11 min and the Heart rate Pre treatment ([5]; dose 2 uMol/kg i.v.) was 350 beats/min. For the same compound, the Heart rate post treatment ([5]; dose 2 uMol/kg i.v.) was 370 beats/min, the B.P. fall ([5]; dose 10 uMol/kg i.v.) was 10% and the Dur. ([5]; dose 10 uMol/kg i.v.) was 3 min. The Heart rate Pre treatment ([5]; dose 10 uMol/kg i.v.) was 315 beats/min, the Heart rate post treatment ([5]; dose 10 uMol/kg i.v.) was 360 beats/min and the B.P. fall ([5]; dose 20 uMol/kg i.v.) was 21%. For the same compound, the Dur. ([5]; dose 20 uMol/kg i.v.) was 27.5 min, the Heart rate Pre treatment ([5]; dose 20 uMol/kg i.v.) was 315 beats/min and the Heart rate post treatment ([5]; dose 20 uMol/kg i.v.) was 285 beats/min. The B.P. fall [6] was 14-18%, the Dur. [6] was 15 to 30 min and the B.P. fall [7] was 8-10%. For the same compound, the Dur. [7] was 10 to 15 min, the “Percent change in flow” value ([8]; total dose 10 ug) was “no effect” and the “Percent change in flow” value ([8]; total dose 25 ug) was “+35 (Vasodilatation) Percent”. The “Percent change in flow” value ([8]; total dose 50 ug) was “+50 (Vasodilatation) Percent”, the Endothelin induced contraction [9] was “inhibited significantly” and the “Response to endothelin after washing the preparation” value ([9]; after washing) was “relaxation rather than contraction”. For the same compound, the antihistaminic activity [10] was “significant antihistaminic activity”, the “duration of negative chronotropic effect” value ([11]; 1 ug) was 10 min and the negative chronotropic effect ([11]; 1 ug) was 30%. The “duration of negative chronotropic effect” value ([11]; 3 ug) was 14 min, the negative chronotropic effect ([11]; 3 ug) was 26% and the “duration of negative chronotropic effect” value ([11]; 5 ug) was 5 min. The negative chronotropic effect ([11]; 5 ug) was 5%, the “antihistaminic activity against histamine induced bronchoconstriction” value [12] was “some antihistaminic activity” and the NE induced contraction [13] was “inhibited”. For the same compound, the “reduction of the fall in blood pressure” value ([14]; glibenclamide pretreatment) was “only partially reduced”, the “alteration of antihypertensive effect” value ([14]; pretreatment with atropine sulphate, mepyramine maleate, propranolol, or yohimbine) was “failed to alter” and the “reduction of antihypertensive effect” value ([14]; pretreatment with captopril or Dup-753) was 33%. For the same compound, the “reduction of antihypertensive effect” value ([14]; pretreatment with prazosin) was 90%, the “reduction of antihypertensive effect” value ([14]; pretreatment with verapamil) was 50% and the B.P. fall [15] was 22%. For the same compound, the Dur. [15] was 25 min, the Onset ([16]; 0.001 ug/ml at reperfusion, 90 min. ischemic insult) was 4 min and the “incidence of reperfusion induced arrhythmia” value [16, 20] was “abolished”. For the same compound, the “time until normal rhythmic contraction started” value [16, 20] was ≤ 2 min, the inhibition at 2 µmol/kg ([17]; Felis catus, iv, dose 2.0 umol/kg i.v., read-out: Adrenaline vasopressure response % inhibition) was 9% and the inhibition in vivo at 2 µmol/kg ([17]; Felis catus, iv, dose 2.0 umol/kg i.v., read-out: B.P. fall %) was 25%. For the same compound, the inhibition at 10 µmol/kg ([17]; Felis catus, iv, dose 10.0 umol/kg i.v., read-out: Adrenaline vasopressure response % inhibition) was > 100%, the inhibition in vivo at 10 µmol/kg ([17]; Felis catus, iv, dose 10.0 umol/kg i.v., read-out: B.P. fall %) was 31% and the Dur. ([17]; dose 2.0 umol/kg i.v.) was 71 min. The Dur. ([17]; dose 10.0 umol/kg i.v.) was >112 min and the Onset [18] was 1.5 min.
